{"source": "patent US7429564B2", "about": "“Oral insulin therapy” (Emisphere Technologies, Inc., priority 2002, dated 2008)", "experiment": "Example 5: 4-CNAB plasma pharmacokinetics, single oral doses, healthy male volunteers", "format": "in vivo, human", "conditions": "for AUC(0-inf) / AUC(0-t) / Cmax / MRT inf / Vd/F / half-life / Tmax / MRT / MRT last: male, human, plasma; for AUC(0-inf) / AUC(0-t) / Cmax / MRT inf / Vd/F / half-life / Tmax / MRT: po; for MRT inf: read-out: 4-CNAB MRT(0-inf); for half-life: read-out: 4-CNAB t1/2 (converted); for MRT: read-out: 4-CNAB MRT(0-f); for MRT last: read-out: 4-CNAB MRT(0-t)", "protocol": "A single center, double-blind, randomized placebo-controlled study undertaken in healthy human subjects in order to assess the safety and tolerability of escalating single oral doses of 4-CNAB capsules and insulin/4-CNAB capsules.\nWithin each treatment period in each group, eight subjects were planned to receive active treatment and two subjects to receive placebo. In Group 1, there were four escalating single doses of 4-CNAB (400, 800, 1400 and 2000 mg) and each subject received either all four of these escalating doses or three escalating single doses and one dose of placebo. […] In Group 3 there were three escalating oral doses of Insulin/4-CNAB (100 Units/300 mg, 100 Units/450 mg and 150 Units/100 mg) and one SC dose of 150 Units of insulin. Each subject received either all four of these treatments or three of these treatments and one placebo treatment. For all groups, there was a washout period of at least 72 hours between treatment periods.\nThe concentration of 4-CNAB in plasma was determined using a combination of liquid chromatography and Mass spectrometry assay known as LC-MS/MS. The method involves protein precipitation followed by separation on liquid chromatography using a Hypersil BDS column and a mobile phase consisting of methanol and acetate buffer. The eluting peaks were quantified by MS/MS. The equipment used for the determination of 4-CNAB in plasma comprises of an Agilent 1100 modular HPLC system with a Micromass Quattro Micro MS/MS detector. HPLC and AR grade chemicals and reagents were used throughout the study.\nOn the basis of plasma concentrations of 4-CNAB and insulin, PK analysis was performed using non-compartmental PK methods as implemented in WinNonlin™ Professional version 3.2. The profiles for insulin and C-peptide corrected insulin were evaluated up to 6 hours as food was given 6 hours following insulin treatment. The following parameters were derived for 4-CNAB: Cmax, tmax, AUC(0-t), AUC(0-inf), AUC% Extrap, Kel, t1/2, CL/F, Vd/F, MRT(0-t), MRT(0-inf) and Frel. The following parameters were derived for insulin and C-peptide corrected insulin: Cmax, tmax, AUC(0-2), AUC(0-6), AUC(0-t) and concentrations (C^b) and corresponding time (t^b) immediately prior to intervention for hypoglycemia.", "key": {"[1]": {"conditions": "2000 mg, 4-CNAB alone 2000 mg oral"}, "[2]": {"conditions": "with insulin, 100 Units/300 mg oral"}, "[3]": {"conditions": "with insulin, 100 Units/450 mg oral"}, "[4]": {"conditions": "with insulin, 100 Units/600 mg oral"}, "[5]": {"conditions": "with insulin, 150 Units/100 mg oral"}, "[6]": {"conditions": "with insulin, 150 Units/200 mg oral"}}, "note": "Where two headings read alike, the source gives them in different places."}
{"compound": "O=C(O)CCCNC(=O)c1ccc(Cl)cc1O", "note": "[4-CNAB, 4-[(4-chloro, 2-hydroxybenzoyl)amino]butanoic acid]", "values": [{"measurement": "AUC(0-inf)", "setting": "[1]", "value": "192000 ± 37100", "unit": "ng·h/mL"}, {"measurement": "AUC(0-t)", "setting": "[1]", "value": "204000 ± 103000", "unit": "ng·h/mL"}, {"measurement": "Cmax", "setting": "[1]", "value": "135000 ± 86600", "unit": "ng/mL"}, {"measurement": "MRT inf", "setting": "[1]", "value": "7.45 ± 2.36", "unit": "h"}, {"measurement": "Vd/F", "setting": "2000 mg, 4-CNAB alone 2000 mg oral, read-out: 4-CNAB Vd/F", "value": "245 ± 131", "unit": "L"}, {"measurement": "half-life", "setting": "[1]", "value": "15.3 ± 6.9", "unit": "h"}, {"measurement": "Tmax", "setting": "2000 mg, 4-CNAB alone 2000 mg oral, read-out: 4-CNAB tmax, median (range)", "value": 0.75, "unit": "h"}, {"measurement": "AUC(0-inf)", "setting": "[2]", "value": "9240 ± 5940", "unit": "ng·h/mL"}, {"measurement": "AUC(0-t)", "setting": "[2]", "value": "8740 ± 5520", "unit": "ng·h/mL"}, {"measurement": "Cmax", "setting": "[2]", "value": "8900 ± 6350", "unit": "ng/mL"}, {"measurement": "MRT", "setting": "[2]", "value": "1.51 ± 0.16", "unit": "h"}, {"measurement": "MRT inf", "setting": "[2]", "value": "2.43 ± 0.82", "unit": "h"}, {"measurement": "Vd/F", "setting": "with insulin, 100 Units/300 mg oral, read-out: 4-CNAB Vz/F", "value": "324 ± 239", "unit": "L"}, {"measurement": "half-life", "setting": "[2]", "value": "5.3 ± 3.3", "unit": "h"}, {"measurement": "Tmax", "setting": "with insulin, 100 Units/300 mg oral, read-out: 4-CNAB tmax, median", "value": 0.5, "unit": "h"}, {"measurement": "AUC(0-inf)", "setting": "[3]", "value": "26800 ± 4560", "unit": "ng·h/mL"}, {"measurement": "AUC(0-t)", "setting": "[3]", "value": "26000 ± 4410", "unit": "ng·h/mL"}, {"measurement": "Cmax", "setting": "[3]", "value": "23200 ± 7930", "unit": "ng/mL"}, {"measurement": "MRT", "setting": "[3]", "value": "1.79 ± 0.5", "unit": "h"}, {"measurement": "MRT inf", "setting": "[3]", "value": "2.3 ± 0.46", "unit": "h"}, {"measurement": "Vd/F", "setting": "with insulin, 100 Units/450 mg oral, read-out: 4-CNAB Vz/F", "value": "101 ± 35", "unit": "L"}, {"measurement": "half-life", "setting": "[3]", "value": "4.1 ± 1.2", "unit": "h"}, {"measurement": "Tmax", "setting": "with insulin, 100 Units/450 mg oral, read-out: 4-CNAB tmax, median", "value": 0.5, "unit": "h"}, {"measurement": "AUC(0-inf)", "setting": "[4]", "value": "37600 ± 5430", "unit": "ng·h/mL"}, {"measurement": "AUC(0-t)", "setting": "[4]", "value": "36600 ± 5760", "unit": "ng·h/mL"}, {"measurement": "Cmax", "setting": "[4]", "value": "35800 ± 12300", "unit": "ng/mL"}, {"measurement": "MRT", "setting": "[4]", "value": "1.45 ± 0.17", "unit": "h"}, {"measurement": "MRT inf", "setting": "[4]", "value": "1.9 ± 0.58", "unit": "h"}, {"measurement": "Vd/F", "setting": "with insulin, 100 Units/600 mg oral, read-out: 4-CNAB Vz/F", "value": "96 ± 35", "unit": "L"}, {"measurement": "half-life", "setting": "[4]", "value": "4.1 ± 1.2", "unit": "h"}, {"measurement": "Tmax", "setting": "with insulin, 100 Units/600 mg oral, read-out: 4-CNAB tmax, median", "value": 0.5, "unit": "h"}, {"measurement": "AUC(0-inf)", "setting": "[5]", "value": "4920 ± 1100", "unit": "ng·h/mL"}, {"measurement": "AUC(0-t)", "setting": "[5]", "value": "4680 ± 1080", "unit": "ng·h/mL"}, {"measurement": "Cmax", "setting": "[5]", "value": "6200 ± 3600", "unit": "ng/mL"}, {"measurement": "MRT", "setting": "[5]", "value": "1.42 ± 0.56", "unit": "h"}, {"measurement": "MRT inf", "setting": "[5]", "value": "2.39 ± 1.39", "unit": "h"}, {"measurement": "Vd/F", "setting": "with insulin, 150 Units/100 mg oral, read-out: 4-CNAB Vz/F", "value": "148 ± 102", "unit": "L"}, {"measurement": "half-life", "setting": "[5]", "value": "4.8 ± 3.4", "unit": "h"}, {"measurement": "Tmax", "setting": "with insulin, 150 Units/100 mg oral, read-out: 4-CNAB tmax, median", "value": 0.5, "unit": "h"}, {"measurement": "AUC(0-inf)", "setting": "[6]", "value": "10300 ± 2080", "unit": "ng·h/mL"}, {"measurement": "AUC(0-t)", "setting": "[6]", "value": "10000 ± 1890", "unit": "ng·h/mL"}, {"measurement": "Cmax", "setting": "[6]", "value": "10100 ± 5090", "unit": "ng/mL"}, {"measurement": "MRT", "setting": "[6]", "value": "1.59 ± 0.23", "unit": "h"}, {"measurement": "MRT inf", "setting": "[6]", "value": "1.97 ± 0.39", "unit": "h"}, {"measurement": "Vd/F", "setting": "with insulin, 150 Units/200 mg oral, read-out: 4-CNAB Vz/F", "value": "89 ± 35", "unit": "L"}, {"measurement": "half-life", "setting": "[6]", "value": "3.2 ± 1.4", "unit": "h"}, {"measurement": "Tmax", "setting": "with insulin, 150 Units/200 mg oral, read-out: 4-CNAB tmax, median", "value": 0.5, "unit": "h"}, {"measurement": "MRT last", "setting": "4-CNAB alone 400 mg oral", "value": "1.6 ± 0.23", "unit": "h"}, {"measurement": "MRT last", "setting": "4-CNAB alone 800 mg oral", "value": "1.75 ± 0.22", "unit": "h"}, {"measurement": "MRT last", "setting": "4-CNAB alone 1400 mg oral", "value": "1.6 ± 0.2", "unit": "h"}, {"measurement": "MRT last", "setting": "4-CNAB alone 2000 mg oral", "value": "1.73 ± 0.31", "unit": "h"}, {"measurement": "4-CNAB Cl/F", "setting": "[2]", "value": "834 ± 527", "unit": "mL/min"}, {"measurement": "4-CNAB Kel", "setting": "[2]", "value": "0.19 ± 0.12", "unit": "h⁻¹"}, {"measurement": "4-CNAB Cl/F", "setting": "[3]", "value": "287 ± 49", "unit": "mL/min"}, {"measurement": "4-CNAB Kel", "setting": "[3]", "value": "0.185 ± 0.06", "unit": "h⁻¹"}, {"measurement": "4-CNAB Cl/F", "setting": "[4]", "value": "271 ± 38", "unit": "mL/min"}, {"measurement": "4-CNAB Kel", "setting": "[4]", "value": "0.19 ± 0.06", "unit": "h⁻¹"}, {"measurement": "4-CNAB Cl/F", "setting": "[5]", "value": "352 ± 68", "unit": "mL/min"}, {"measurement": "4-CNAB Kel", "setting": "[5]", "value": "0.22 ± 0.14", "unit": "h⁻¹"}, {"measurement": "4-CNAB Cl/F", "setting": "[6]", "value": "338 ± 75", "unit": "mL/min"}, {"measurement": "4-CNAB Kel", "setting": "[6]", "value": "0.25 ± 0.09", "unit": "h⁻¹"}]}
